The values below come from patent US10533010B2, “Substituted indole Mcl-1 inhibitors” (Vanderbilt University, priority 2014, dated 2020).

Read-outs that look alike come from different tables or passages of the source.

The assay concerns the target recombinant Mcl-1 (residues 172-327) (Homo sapiens (Human), UniProt Q07820). Put plainly: Fluorescence polarization anisotropy competition assay (FITC-Bak or FITC-Bim BH3 peptide) with Mcl-1. The class given is binding.
Where [1] appears, read: Table 2, Ki bins given in nM, FITC-Bak or FITC-Bim peptide competition, Ki converted from IC50, read-out: Ki for Inhibition of Mcl-1.

recombinant Mcl-1 (residues 172-327), sequence (Q07820 172-327): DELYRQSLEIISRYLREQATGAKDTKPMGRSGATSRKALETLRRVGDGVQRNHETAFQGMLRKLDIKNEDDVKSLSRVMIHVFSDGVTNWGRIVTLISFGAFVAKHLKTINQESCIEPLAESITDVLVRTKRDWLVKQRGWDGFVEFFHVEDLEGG

Consider `Cc1cc(OCCCc2c3n(c4c(-c5c(C)nn(C)c5C)c(Cl)ccc24)C[C@@H](C)N(c2cccc(C(=O)O)c2)C3=O)cc(C)c1Cl` [I-157, (R)-3-(7-chloro-10-(3-(4-chloro-3,5-dimethylphenoxy)propyl)-3-methyl-1-oxo-6-(1,3,5-trimethyl-1H-pyrazol-4-yl)-3,4-dihydropyrazino[1,2-a]indol-2(1H)-yl)benzoic acid], for which, under setting [1], the Ki was under 50 nM.
As to `Cc1cc(OCCCc2c3n(c4c(-c5c(C)nn(C)c5C)c(Cl)ccc24)CCCN(Cc2ccc(C(=O)NS(=O)(=O)c4ccc(OCc5ccccc5)cc4)cc2)C3=O)cc(C)c1Cl` [I-309, N-((4-(benzyloxy)phenyl)sulfonyl)-4-((8-chloro-11-(3-(4-chloro-3,5-dimethylphenoxy)propyl)-1-oxo-7-(1,3,5-trimethyl-1H-pyrazol-4-yl)-4,5-dihydro-1H-[1,4]diazepino[1,2-a]indol-2(3H)-yl)methyl)benzamide], the Ki under setting [1] was under 50 nM.
Consider `Cc1cc(OCCCc2c3n(c4c(-c5c(C)nn(C)c5C)c(Cl)ccc24)C(C)CN(Cc2cccc(C(=O)O)c2)C3=O)cc(C)c1Cl` (stereo not shown) [I-131, 3-((7-chloro-10-(3-(4-chloro-3,5-dimethylphenoxy)propyl)-4-methyl-1-oxo-6-(1,3,5-trimethyl-1H-pyrazol-4-yl)-3,4-dihydropyrazino[1,2-a]indol-2(1H)-yl)methyl)benzoic acid], for which the Ki under setting [1] is under 50 nM.
On the same count and under the same terms, the same measure for `Cc1cc(OCCCc2c3n(c4c(-c5c(C)nn(C)c5C)c(Cl)ccc24)CCCN(c2cc(C(=O)O)c4c(Br)cn(C)c4c2)C3=O)cc(C)c1Cl` [I-258, 3-bromo-6-(8-chloro-11-(3-(4-chloro-3,5-dimethylphenoxy)propyl)-1-oxo-7-(1,3,5-trimethyl-1H-pyrazol-4-yl)-4,5-dihydro-1H-[1,4]diazepino[1,2-a]indol-2(3H)-yl)-1-methyl-1H-indole-4-carboxylic acid]: under 50 nM; for `Cc1cc(OCCCc2c3n(c4c(-c5c(C)nn(C)c5C)c(Cl)ccc24)C(C)[C@@H](C)N(Cc2ccc(C(=O)O)cn2)C3=O)cc(C)c1Cl` (stereo partly drawn) [I-146, 6-(((3R)-7-chloro-10-(3-(4-chloro-3,5-dimethylphenoxy)propyl)-3,4-dimethyl-1-oxo-6-(1,3,5-trimethyl-1H-pyrazol-4-yl)-3,4-dihydropyrazino[1,2-a]indol-2(1H)-yl)methyl)nicotinic acid]: under 50 nM; for `Cc1cc(OCCCc2c3n(c4c(-c5c(C)nn(C)c5C)c(Cl)ccc24)CCCN(c2ccc(C#N)cc2)C3=O)cc(C)c1Cl` [I-356, 4-(8-chloro-11-(3-(4-chloro-3,5-dimethylphenoxy)propyl)-1-oxo-7-(1,3,5-trimethyl-1H-pyrazol-4-yl)-4,5-dihydro-1H-[1,4]diazepino[1,2-a]indol-2(3H)-yl)benzonitrile]: 51 to 100 nM.
Take `Cc1cc(OCCCc2c(C(=O)NCc3ccc(C(=O)O)o3)[nH]c3ccccc23)cc(C)c1Cl` [I-57, 5-((3-(3-(4-chloro-3,5-dimethylphenoxy)propyl)-1H-indole-2-carboxamido)methyl)furan-2-carboxylic acid]: the Ki fell in the range of 51 to 100 nM.
With `Cc1cc(OCCCc2c3n(c4c(-c5c(C)nn(C)c5C)c(Cl)ccc24)CCC(C)N(Cc2ccc(C(=O)O)cn2)C3=O)cc(C)c1Cl` (stereo not shown) [I-124, 6-((8-chloro-11-(3-(4-chloro-3,5-dimethylphenoxy)propyl)-3-methyl-1-oxo-7-(1,3,5-trimethyl-1H-pyrazol-4-yl)-4,5-dihydro-1H-[1,4]diazepino[1,2-a]indol-2(3H)-yl)methyl)nicotinic acid], the Ki under setting [1] is under 50 nM.
Still for that read-out and setting: the same measure for `Cc1cc(OCCCc2c3n(c4c(-c5c(C)nn(C)c5C)c(Cl)ccc24)CCCN(c2ccc(CC(=O)O)cc2)C3=O)cc(C)c1Cl` [I-237, 2-(4-(8-chloro-11-(3-(4-chloro-3,5-dimethylphenoxy)propyl)-1-oxo-7-(1,3,5-trimethyl-1H-pyrazol-4-yl)-4,5-dihydro-H-[1,4]diazepino[1,2-a]indol-2(3H)-yl)phenyl)acetic acid]: under 50 nM; for `Cc1cc(OCCCc2c(C(=O)NCc3cccc(C(=O)O)c3)n(C)c3c(-c4c(C)nn(C)c4C)cccc23)cc(C)c1Cl` [I-33, 3-((3-(3-(4-chloro-3,5-dimethylphenoxy)propyl)-1-methyl-7-(1,3,5-trimethyl-1H-pyrazol-4-yl)-1H-indole-2-carboxamido)methyl)benzoic acid]: 51 to 100 nM; for `Cc1cc(OCCCc2c3n(c4c(-c5c(C)nn(C)c5C)c(Cl)ccc24)CCCN(c2cc(C(=O)O)cc4c2ccn4Cc2cccnc2)C3=O)cc(C)c1Cl` [I-242, 4-(8-chloro-11-(3-(4-chloro-3,5-dimethylphenoxy)propyl)-1-oxo-7-(1,3,5-trimethyl-1H-pyrazol-4-yl)-4,5-dihydro-1H-[1,4]diazepino[1,2-a]indol-2(3H)-yl)-1-(pyridin-3-ylmethyl)-1H-indole-6-carboxylic acid]: under 50 nM.
On to `Cc1cc(OCCCc2c(C(=O)NCc3ccc(N4CCCCC4)c(C(=O)O)c3)[nH]c3c(-c4c(C)nn(C)c4C)cccc23)cc(C)c1Cl` [I-73, 5-((3-(3-(4-chloro-3,5-dimethylphenoxy)propyl)-7-(1,3,5-trimethyl-1H-pyrazol-4-yl)-1H-indole-2-carboxamido)methyl)-2-(piperidin-1-yl)benzoic acid], for which the Ki under setting [1] is 301 to 500 nM.
Same read-out and setting: as for `Cc1cc(OCCCc2c(C(=O)N[C@H]3CC[C@@H](C(=O)O)CC3)[nH]c3c(-c4c(C)nn(C)c4C)c(Cl)ccc23)cc(C)c1Cl` [I-332, (1s,4s)-4-(6-chloro-3-(3-(4-chloro-3,5-dimethylphenoxy)propyl)-7-(1,3,5-trimethyl-1H-pyrazol-4-yl)-1H-indole-2-carboxamido)cyclohexane-1-carboxylic acid], the figure is under 50 nM; as for `Cc1cc(OCCCc2c3n(c4c(-c5c(C)nn(C)c5C)c(Cl)ccc24)[C@@H](C)CN(c2cc(C(=O)O)cc4c2ccn4C)C3=O)cc(C)c1Cl` [I-167, (S)-4-(7-chloro-10-(3-(4-chloro-3,5-dimethylphenoxy)propyl)-4-methyl-1-oxo-6-(1,3,5-trimethyl-1H-pyrazol-4-yl)-3,4-dihydropyrazino[1,2-a]indol-2(1H)-yl)-1-methyl-1H-indole-6-carboxylic acid], under 50 nM; as for `Cc1cc(OCCCc2c(C(=O)N[C@H]3CCC[C@H]3C(=O)O)[nH]c3c(-c4c(C)nn(C)c4C)c(Cl)ccc23)cc(C)c1Cl` [I-334, (1R,2S)-2-(6-chloro-3-(3-(4-chloro-3,5-dimethylphenoxy)propyl)-7-(1,3,5-trimethyl-1H-pyrazol-4-yl)-1H-indole-2-carboxamido)cyclopentane-1-carboxylic acid], under 50 nM.
As for `Cc1cc(OCCCc2c3n(c4c(-c5c(C)nn(C)c5C)c(Cl)ccc24)C[C@@H](C)N(c2cc(C(=O)O)c4ccn(C)c4c2)C3=O)cc(C)c1Cl` [I-160, (R)-6-(7-chloro-10-(3-(4-chloro-3,5-dimethylphenoxy)propyl)-3-methyl-1-oxo-6-(1,3,5-trimethyl-1H-pyrazol-4-yl)-3,4-dihydropyrazino[1,2-a]indol-2(1H)-yl)-1-methyl-1H-indole-4-carboxylic acid], under setting [1], the Ki was under 50 nM.
Turning to `CCOC(=O)c1ccc(CNC(=O)c2[nH]c3c(-c4c(C)nn(C)c4C)cccc3c2CCCOc2cc(C)c(Cl)c(C)c2)o1` [I-266, ethyl 5-((3-(3-(4-chloro-3,5-dimethylphenoxy)propyl)-7-(1,3,5-trimethyl-1H-pyrazol-4-yl)-1H-indole-2-carboxamido)methyl)furan-2-carboxylate], for the setting “Table 2, Ki bins given in μM, FITC-Bak or FITC-Bim peptide competition, Ki converted from IC50, read-out: Ki for Inhibition of Mcl-1”, the Ki is 10000 to 50000 nM.
In the case of `Cc1cc(OCCCc2c3n(c4c(-c5c(C)nn(C)c5C)c(Cl)ccc24)CCCN(Cc2cc(C(=O)O)cc(-c4ccc(O)cc4)c2)C3=O)cc(C)c1Cl` [I-306, 5-((8-chloro-1-(3-(4-chloro-3,5-dimethylphenoxy)propyl)-1-oxo-7-(1,3,5-trimethyl-1H-pyrazol-4-yl)-4,5-dihydro-1H-[1,4]diazepino[1,2-a]indol-2(3H)-yl)methyl)-4′-hydroxy-[1,1′-biphenyl]-3-carboxylic acid], the Ki under setting [1] is under 50 nM.
Regarding `Cc1cc(OCCCc2c(C(=O)Nc3ccnc(C(=O)O)c3)[nH]c3c(-c4c(C)nn(C)c4C)c(Cl)ccc23)cc(C)c1Cl` [I-180, 4-(6-chloro-3-(3-(4-chloro-3,5-dimethylphenoxy)propyl)-7-(1,3,5-trimethyl-1H-pyrazol-4-yl)-1H-indole-2-carboxamido)picolinic acid], under setting [1], the Ki is under 50 nM.
Regarding `Cc1cc(OCCCc2c3n(c4c(-c5c(C)nn(C)c5C)c(Cl)ccc24)CCCN(c2cccc(C(=O)NS(C)(=O)=O)c2)C3=O)cc(C)c1Cl` [I-368, 3-(8-chloro-11-(3-(4-chloro-3,5-dimethylphenoxy)propyl)-1-oxo-7-(1,3,5-trimethyl-1H-pyrazol-4-yl)-4,5-dihydro-H-[1,4]diazepino[1,2-a]indol-2(3H)-yl)-N-(methylsulfonyl)benzamide], the inhibition constant (Ki) under setting [1] is under 50 nM.
On to `Cc1cc(OCCCc2c3n(c4c(-c5c(C)nn(C)c5C)c(Cl)ccc24)CCCN(c2ccc(C(=O)O)c(F)c2)C3=O)cc(C)c1Cl` [I-94, 4-(8-chloro-11-(3-(4-chloro-3,5-dimethylphenoxy)propyl)-1-oxo-7-(1,3,5-trimethyl-1H-pyrazol-4-yl)-4,5-dihydro-1H-[1,4]diazepino[1,2-a]indol-2(3H)-yl)-2-fluorobenzoic acid], for which the Ki under setting [1] was under 50 nM.
On the same count and under the same terms, as for `Cc1cc(OCCCc2c3n(c4c(-c5c(C)nn(C)c5C)c(Cl)ccc24)CCCN(c2cc(C(=O)O)c4cnn(C)c4c2)C3=O)cc(C)c1Cl` [I-367, 6-(8-chloro-11-(3-(4-chloro-3,5-dimethylphenoxy)propyl)-1-oxo-7-(1,3,5-trimethyl-1H-pyrazol-4-yl)-4,5-dihydro-1H-[1,4]diazepino[1,2-a]indol-2(3H)-yl)-1-methyl-1H-indazole-4-carboxylic acid], the figure is under 50 nM.
